Data taken from patent publication US4996237A, “Combretastatin A-4” (Arizona Board of Regents, priority 1988, dated 1991).
“Also recorded” adds a separate entry of the source.

What was measured:
[1] = antimitotic activity; conditions: among the Combretum caffrum constituents
[2] = test system: P388 lymphocytic leukemia cell line; assay: growth inhibition of murine P388 lymphocytic leukemia cell line (PS system); format: cell-based
[3] = test system: L1210 lymphocytic leukemia cell line; assay: growth inhibition of murine L1210 lymphocytic leukemia cell line; format: cell-based
[4] = test system: tubulin; assay: inhibition of colchicine binding to tubulin; conditions: competes with combretastatin A-1
[5] = test system: HCT-15 human colon cancer cell line; assay: growth inhibition of human colon cancer cell line HCT-15; format: cell-based; conditions: read-out: ED50, HCT-15
[6] = test system: tubulin; assay: inhibition of microtubule assembly / tubulin polymerization; format: biochemical
[7] = test system: VoLo human colon cancer cell line; assay: growth inhibition of human colon cancer cell line VoLo; format: cell-based; conditions: read-out: ED50, VoLo
[8] = test system: DLD-1 human colon cancer cell line; assay: growth inhibition of human colon cancer cell line DLD-1; format: cell-based; conditions: read-out: ED50, DLD-1
[9] = test system: tubulin; conditions: previously isolated from Combretum caffrum; cited from earlier work

COc1ccc(/C=C\c2cc(OC)c(OC)c(OC)c2)cc1O [Combretastatin A-4]
antimitotic activity (in words) [1]: strongest antimitotic agent | activity against P388 cell line (in words) [2]: significantly active | IC50 ([2]; Mus musculus, P388, read-out: ED50, growth of P388 cell line): < 0.003 µg/mL | activity against L1210 cell line (in words) [3]: significantly active | IC50 ([3]; Mus musculus, L1210, read-out: ED50, growth of L1210 cell line): < 0.003 µg/mL | inhibition of colchicine binding to tubulin (in words) [4]: […] | IC50 [5]: […] | IC50 [6]: […] | inhibition of tubulin polymerization (in words) [6]: […] | inhibition of microtubule assembly, comparison with reference agents (in words) ([6]; compared with podophyllotoxin, combretastatin A-1, colchicine, steganacin): […] | IC50 [7]: […] | IC50 [8]: […]

COc1ccc(/C=C\c2cc(OC)c(OC)c(OC)c2)c(O)c1O [combretastatin A-1]
inhibition of microtubule assembly (in words), earlier isolated substances [9]: potent inhibitors of microtubule assembly

COc1ccc(/C=C\c2cc(OC)c3c(c2)OCO3)cc1O [combretastatin A-2]
inhibition of microtubule assembly (in words), earlier isolated substances [9]: potent inhibitors of microtubule assembly

COc1ccc(/C=C/c2cc(OC)c(OC)c(OC)c2)cc1O [trans-isomer]
activity against P388 cell line (in words) [2]: significantly active | activity against L1210 cell line (in words) [3]: significantly active
